According to US20260234351A1, “ANTIMICROBIAL POLYMER FOAMS COMPRISING A SYNERGISTIC BLEND OF COMPONENTS” (Cupron Performance Additives, Inc., priority 2023, published 2026):

Tested on: E. coli (ATCC 8739)
Assay: Zone of Inhibition (ZOI), sample pellets on agar
Conditions: for diameter of the ZOI: pellets with 20 wt % cellulose binder (Tables 1 and 2)
[1] = E. coli, 24 h incubation at 37° C.

Description: Zone of Inhibition (ZOI). […] The cultures were streaked on Luria Agar (LB) plates and incubated overnight at 37° C. […] 50 μL of this stock suspension was spread homogeneously on a trypticase soy agar (TSA) plate (diameter 10 cm).

Substance | diameter of the ZOI [1] | antimicrobial efficacy in the zone of inhibition testing (compound alone) | Zone of Inhibition Diameter (mm) Avg (E. coli, 24 h incubation at 37° C., cellulose binder, average of 3 trials) [mm]
Zinc borate | No ZOI | no significant antimicrobial efficacy | 
molybdenum (VI) oxide [molybdenum oxide] | 19 mm |  | 
basic copper(II) carbonate [BCC] |  |  | 12
